Like-named read-outs stand apart in the source and are kept apart here. Some results are limits rather than exact numbers.

This assay concerns HIV-1 (HIVIIIB) replication in MT2 cell line. The experiment in a line: HIV-1 replication in MT2 cell line with and without 30% human serum (viral RT activity in supernatant). It counts as cell-based. To be noted: Human immunodeficiency virus 1, MT2 cells, average IC50 if tested more than once. An outline of the steps: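 MT2 cells infected with HIV-1 IIIB at MOI 0.5 for 3 h, washed, seeded at 0.5×10^6/ml in RPMI/10% FBS with serially diluted compound, with or without 30% human serum; medium and compound refreshed on day 3. RT activity in supernatant at day 5; IC50 and IC90 derived.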

Where [1] appears, read: with 30% human serum, read-out: MT2 (HIVIIIB) with HS 30% IC50 range.
Where [2] appears, read: without human serum, read-out: MT2 (HIVIIIB) IC50 range.

Take `COC(=O)N[C@@]12CC[C@]3(C)[C@H](CC[C@@H]4[C@@]5(C)CC[C@H](OC(=O)CC(C)(C)C(=O)O)C(C)(C)[C@@H]5CC[C@]43C)C1=C(C(C)C)C(=O)C2` [20-1, 3β-O-(3′,3′-Dimethylsuccinyl)-17β-nnethoxycarbonylamino-21-oxolup-18-ene]: the IC50 (as a rule, the midpoint of a concentration-inhibition curve) by setting is: under setting [1], less than 199 nM; under setting [2], less than 199 nM.

On to `CC(C)OC(=O)N[C@@]12CC[C@]3(C)[C@H](CC[C@@H]4[C@@]5(C)CC[C@H](OC(=O)CC(C)(C)C(=O)O)C(C)(C)[C@@H]5CC[C@]43C)C1=C(C(C)C)C(=O)C2` [20-2], for which the 50% inhibitory concentration (IC50) was less than 199 nM under setting [1] and less than 199 nM under setting [2].

For `CC(C)C1=C2C3CCC4[C@@]5(C)CC[C@H](OC(=O)CC(C)(C)C(=O)O)C(C)(C)C5CC[C@@]4(C)[C@]3(C)CC[C@@]2(NC(=O)OCC2CC2)CC1=O` (stereo partly drawn) [20-3, 3β-O-(3′,3′-Dimethylsuccinyl)-17β-cyclopropylmethoxycarbonylamino-21-oxolup-18-ene], the IC50 is, setting by setting: under setting [1], less than 199 nM; under setting [2], less than 199 nM.

As for `CC(C)C1=C2C3CCC4[C@@]5(C)CC[C@H](OC(=O)CC(C)(C)C(=O)O)C(C)(C)C5CC[C@@]4(C)[C@]3(C)CC[C@@]2(NC(=O)OC2CCCC2)CC1=O` (stereo partly drawn) [20-4, 3β-O-(3′,3′-Dimethylsuccinyl)-17β-cyclopentyloxycarbonylamino-21-oxolup-18-ene], under setting [1], the IC50 was less than 199 nM.

Consider `CC(C)C1=C2C3CCC4[C@@]5(C)CC[C@H](OC(=O)CC(C)(C)C(=O)O)C(C)(C)C5CC[C@@]4(C)[C@]3(C)CC[C@@]2(NC(=O)OC2CCCCC2)CC1=O` (stereo partly drawn) [20-5, 3β-O-(3′,3′-Dimethylsuccinyl)-17β-cyclohexyloxycarbonylamino-21-oxolup-18-ene], for which, under setting [1], the IC50 is less than 199 nM.

Regarding `CC(C)C1=C2C3CCC4[C@@]5(C)CC[C@H](OC(=O)CC(C)(C)C(=O)O)C(C)(C)C5CC[C@@]4(C)[C@]3(C)CC[C@@]2(NC(=O)OC2CCN(C(=O)OC(C)(C)C)CC2)CC1=O` (stereo partly drawn) [20-6, 3β-O-(3′,3′-Dimethylsuccinyl)-17β-[(1-carboxylic acid tert-butyl ester)-piperidine-4-oxycarbonylamino]-21-oxolup-18-ene], the IC50 is less than 199 nM under setting [1] and less than 199 nM under setting [2].

`CC(C)C1=C2C3CCC4[C@@]5(C)CC[C@H](OC(=O)CC(C)(C)C(=O)O)C(C)(C)C5CC[C@@]4(C)[C@]3(C)CC[C@@]2(NC(=O)OCC2CCCCC2)CC1=O` (stereo partly drawn) [20-7, 3β-O-(3′,3′-Dimethylsuccinyl)-17β-cyclohexylmethoxycarbonylamino-21-oxolup-18-ene]: the half-maximal inhibitory concentration (IC50) under setting [1] was less than 199 nM and the IC50 under setting [2] is less than 199 nM.

With `CC(C)C1=C2C3CCC4[C@@]5(C)CC[C@H](OC(=O)CC(C)(C)C(=O)O)C(C)(C)C5CC[C@@]4(C)[C@]3(C)CC[C@@]2(NC(=O)OCc2ccccc2)CC1=O` (stereo partly drawn) [20-8, 3β-O-(3′,3′-Dimethylsuccinyl)-17β-benzyloxycarbonylamino-21-oxolup-18-ene], the half-maximal inhibitory concentration (IC50) under setting [1] is less than 199 nM.

With `CC(C)C1=C2C3CCC4[C@@]5(C)CC[C@H](OC(=O)CC(C)(C)C(=O)O)C(C)(C)C5CC[C@@]4(C)[C@]3(C)CC[C@@]2(NC(=O)OC2CCC2)CC1=O` (stereo partly drawn) [20-9, 3β-O-(3′,3′-Dimethylsuccinyl)-17β-cyclobutyloxycarbonylamino-21-oxolup-18-ene], under setting [1], the IC50 is less than 199 nM.

`CC(C)C1=C2C3CCC4[C@@]5(C)CC[C@H](OC(=O)CC(C)(C)C(=O)O)C(C)(C)C5CC[C@@]4(C)[C@]3(C)CC[C@@]2(NC(=O)OC(C)C2CC2)CC1=O` (stereo partly drawn) [20-10, 3β-O-(3′,3′-Dimethylsuccinyl)-17β-(1-cyclopropylethoxycarbonylamino)-21-oxolup-18-ene]: under setting [1], the half-inhibitory concentration (IC50) was less than 199 nM.

`CC(C)C1=C2C3CCC4[C@@]5(C)CC[C@H](OC(=O)CC(C)(C)C(=O)O)C(C)(C)C5CC[C@@]4(C)[C@]3(C)CC[C@@]2(NC(=O)OCC2(C)CC2)CC1=O` (stereo partly drawn) [20-11, 3β-O-(3′,3′-Dimethylsuccinyl)-17β-(1-methyl-cyclopropylmethoxycarbonylamino)-21-oxolup-18-ene]: the IC50 under setting [1] is less than 199 nM.

With `CC(C)C1=C2C3CCC4[C@@]5(C)CC[C@H](OC(=O)CC(C)(C)C(=O)O)C(C)(C)C5CC[C@@]4(C)[C@]3(C)CC[C@@]2(NC(=O)OCC2(N)CC2)CC1=O` (stereo partly drawn) [20-12, 3β-O-(3′,3′-Dimethylsuccinyl)-17β-(1-amino-cyclopropylmethoxycarbonylamino)-21-oxolup-18-ene], under setting [1], the IC50 was less than 199 nM.

For `CC(C)C1=C2C3CCC4[C@@]5(C)CC[C@H](OC(=O)CC(C)(C)C(=O)O)C(C)(C)C5CC[C@@]4(C)[C@]3(C)CC[C@@]2(NC(=O)O[C@@H]2CCN(C)C2)CC1=O` (stereo partly drawn) [20-13, 3β-O-(3′,3′-Dimethylsuccinyl)-17β-((R)-1-methylpyrrolidine-3-oxycarbonylamino)-21-oxolup-18-ene], the IC50 under setting [1] was less than 199 nM.

On to `CC(C)C1=C2C3CCC4[C@@]5(C)CC[C@H](OC(=O)CC(C)(C)C(=O)O)C(C)(C)C5CC[C@@]4(C)[C@]3(C)CC[C@@]2(NC(=O)OC2CCSCC2)CC1=O` (stereo partly drawn) [20-14, 3β-O-(3′,3′-Dimethylsuccinyl)-17β-(tetrahydro-thiopyran-4-oxycarbonylamino)-21-oxolup-18-ene], for which the IC50 under setting [1] is less than 199 nM.

As for `CC(C)C1=C2C3CCC4[C@@]5(C)CC[C@H](OC(=O)CC(C)(C)C(=O)O)C(C)(C)C5CC[C@@]4(C)[C@]3(C)CC[C@@]2(NC(=O)OC2CCS(=O)(=O)CC2)CC1=O` (stereo partly drawn) [20-15, 3β-O-(3′,3′-Dimethylsuccinyl)-17β-(1,1-dioxo-tetrahydro-thiopyran-4-oxycarbonylamino)-21-oxolup-18-ene], the IC50 under setting [1] was less than 199 nM.

On to `CC(C)C1=C2C3CCC4[C@@]5(C)CC[C@H](OC(=O)CC(C)(C)C(=O)O)C(C)(C)C5CC[C@@]4(C)[C@]3(C)CC[C@@]2(NC(=O)OC2CCNCC2)CC1=O` (stereo partly drawn) [20-16, 3β-O-(3′,3′-Dimethylsuccinyl)-17β-(piperidine-4-oxycarbonylamino)-21-oxolup-18-ene], for which the IC50 under setting [1] is less than 199 nM.

Consider `CC(C)C1=C2C3CCC4[C@@]5(C)CC[C@H](OC(=O)CC(C)(C)C(=O)O)C(C)(C)C5CC[C@@]4(C)[C@]3(C)CC[C@@]2(NC(=O)OC2CCN(C)CC2)CC1=O` (stereo partly drawn) [20-17, 3β-O-(3′,3′-Dimethylsuccinyl)-17β-(1-methylpiperidine-4-oxycarbonylamino)-21-oxolup-18-ene], for which the concentration for half-maximal inhibition (IC50) under setting [1] was less than 199 nM.

With `CC(C)C1=C2C3CCC4[C@@]5(C)CC[C@H](OC(=O)CC(C)(C)C(=O)O)C(C)(C)C5CC[C@@]4(C)[C@]3(C)CC[C@@]2(NC(=O)OCC2CCN(C)CC2)CC1=O` (stereo partly drawn) [20-18, 3β-O-(3′,3′-Dimethylsuccinyl)-17β-(1-methylpiperidine-4-methoxycarbonylamino)-21-oxolup-18-ene], the IC50 under setting [1] is less than 199 nM.

In the case of `CC(C)C1=C2C3CCC4[C@@]5(C)CC[C@H](OC(=O)CC(C)(C)C(=O)O)C(C)(C)C5CC[C@@]4(C)[C@]3(C)CC[C@@]2(NC(=O)OCC2CCCN(C)C2)CC1=O` (stereo partly drawn) [20-19, 3β-O-(3′,3′-Dimethylsuccinyl)-17β-(1-methylpiperidine-3-methoxycarbonylamino)-21-oxolup-18-ene], the concentration for half-maximal inhibition (IC50) under setting [1] was less than 199 nM.

`CC(C)C1=C2C3CCC4[C@@]5(C)CC[C@H](OC(=O)CC(C)(C)C(=O)O)C(C)(C)C5CC[C@@]4(C)[C@]3(C)CC[C@@]2(NC(=O)OC[C@@H]2CCCN2C)CC1=O` (stereo partly drawn) [20-20, 3β-O-(3′,3′-Dimethylsuccinyl)-17β-((S)1-methylpyrrolidine-2-methoxycarbonylamino)-21-oxolup-18-ene]: the IC50 under setting [1] was less than 199 nM.

As for `CC(C)C1=C2C3CCC4[C@@]5(C)CC[C@H](OC(=O)CC(C)(C)C(=O)O)C(C)(C)C5CC[C@@]4(C)[C@]3(C)CC[C@@]2(NC(=O)OCC2CCN(C)C2)CC1=O` (stereo partly drawn) [20-21, 3β-O-(3′,3′-Dimethylsuccinyl)-17β-(1-methylpyrrolidine-3-methoxycarbonylamino)-21-oxolup-18-ene], the IC50 under setting [1] was less than 199 nM.

Take `CC(C)C1=C2C3CCC4[C@@]5(C)CC[C@H](OC(=O)CC(C)(C)C(=O)O)C(C)(C)C5CC[C@@]4(C)[C@]3(C)CC[C@@]2(NC(=O)OCCC2CC2)CC1=O` (stereo partly drawn) [20-22, 3β-O-(3′,3′-Dimethylsuccinyl)-17β-(2-cyclopropyl-1-ethoxycarbonylamino)-21-oxolup-18-ene]: the IC50 under setting [1] was less than 199 nM.

`CC(C)C1=C2C3CCC4[C@@]5(C)CC[C@H](OC(=O)CC(C)(C)C(=O)O)C(C)(C)C5CC[C@@]4(C)[C@]3(C)CC[C@@]2(NC(=O)OCCN2CCCC2)CC1=O` (stereo partly drawn) [20-23, 3β-O-(3′,3′-Dimethylsuccinyl)-17β-(2-pyrrolidin-1-ethoxycarbonylamino)-21-oxolup-18-ene]: the IC50 under setting [1] was less than 199 nM.

As for `CC(C)C1=C2C3CCC4[C@@]5(C)CC[C@H](OC(=O)CC(C)(C)C(=O)O)C(C)(C)C5CC[C@@]4(C)[C@]3(C)CC[C@@]2(NC(=O)OCCN2CCCC2=O)CC1=O` (stereo partly drawn) [20-24, 3β-O-(3′,3′-Dimethylsuccinyl)-17β-(2-(2-oxo-pyrrolidin)-1-ethoxycarbonylamino)-21-oxolup-18-ene], the IC50 under setting [1] is less than 199 nM.

The values are drawn from patent publication US8269026B2, “Lupane derivatives useful for treating HIV” (priority 2008, dated 2012).
